According to publication PMC12049818, “Identification of NUV-244 as a PNPLA3 I148M degrading small molecule” (iScience, 2025):

Molecular target: T1, PNPLA3 I148M-tagRFP (Homo sapiens, UniProt Q9NST1, I148M)
T1 construct: host or cells: Huh7
T1 sequence (Q9NST1 1-481 I148M): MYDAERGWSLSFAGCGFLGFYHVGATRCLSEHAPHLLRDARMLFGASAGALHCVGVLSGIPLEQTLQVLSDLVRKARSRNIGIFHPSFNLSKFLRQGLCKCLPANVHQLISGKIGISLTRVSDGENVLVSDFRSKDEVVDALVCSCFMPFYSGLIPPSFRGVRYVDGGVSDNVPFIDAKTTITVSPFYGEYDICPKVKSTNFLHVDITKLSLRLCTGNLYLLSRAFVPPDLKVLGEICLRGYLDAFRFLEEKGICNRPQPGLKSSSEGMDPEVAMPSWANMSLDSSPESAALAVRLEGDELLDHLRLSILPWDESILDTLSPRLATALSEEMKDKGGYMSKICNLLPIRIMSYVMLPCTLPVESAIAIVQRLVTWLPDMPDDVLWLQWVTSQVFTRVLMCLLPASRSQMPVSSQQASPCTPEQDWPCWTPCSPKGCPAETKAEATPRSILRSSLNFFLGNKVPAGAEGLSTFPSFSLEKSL
Assay: Time-lapse imaging of PNPLA3 I148M-tagRFP on lipid droplets in Huh7 cells
Format: cell-based
Protocol: To evaluate the kinetics of NUV-244 mediated reduction and degradation of PNPLA3 I148M-tagRFP, we performed time-lapse studies to follow PNPLA3 I148M-tagRFP over time (Figures 5A and 5B). 1μM or 5μM NUV-244 leads to rapid onset of reduction of PNPLA3 I148M-tagRFP on lipid droplets with half maximum effect reached after approximately 2h. To evaluate if PNPLA3 I148M-tagRFP degradation is 26S proteasome dependent, 1μM Bortezomib was co-incubated with NUV-244. Proteasome inhibition prevents PNPLA3 I148M-tagRFP reduction from lipid droplets (Figures 5A and 5B). […] A recent paper identified the E3 ligase responsible for the turnover of endogenous PNPLA3, the ER associated E3 ligase BFAR.[18]
Huh7 cells expressing PNPLA3 I148M-tagRFP were seeded at 4000 cells/well in 30 μL media in 384-well imaging plates (Revvity, PhenoPlate) and stored in a 37°C incubator with 5% CO2 and 95% humidity overnight. Cells were then incubated with Bodipy diluted in growth medium (38nM final concentration) for 1h at 37°C with 5% CO2 and 95% humidity. Cells were treated with DMSO control, 1 μM or 5 μM NUV-244, with or without 1 μM Bortezomib or 5 μM MLN7243. Cells were imaged every 15 minutes over a 20-hour period using an Opera Phenix confocal spinning disc microscope system (Revvity) with a 20x water objective at 561 nm (tagRFP) and 488 nm (BODIPY). Images were analyzed using Harmony software. PNPLA3 I148M-tagRFP intensity on lipid droplets was quantified and compared between treatments.

effect of co-treatment on NUV-244 induced decrease of PNPLA3 I148M-tagRFP on lipid droplets (1μM co-treatment with 1μM or 5μM NUV-244)	effect of co-treatment on NUV-244 induced decrease of PNPLA3 I148M-tagRFP on lipid droplets (5μM co-treatment with 1μM or 5μM NUV-244)	Structure (SMILES)
rescue of degradation	–	CC(C)C[C@H](NC(=O)[C@H](Cc1ccccc1)NC(=O)c1cnccn1)B(O)O [Bortezomib]
–	rescue of degradation	NS(=O)(=O)OC[C@H]1C[C@@H](Nc2ccnc3cc(-c4cccc(SC(F)(F)F)c4)nn23)[C@H](O)[C@@H]1O [MLN7243]
